The text below walks through data of patent US10704024B2, “Method for producing mesenchymal cells with promoted c-MPL receptor expression on cell surface” (AdipoSeeds, Inc., priority 2015, dated 2020).

The test system of assay [1] is Human primary culture preadipocytes (HPAd). As to the kind of experiment: Culture of preadipocytes in basic medium with TPO; c-MPL receptor positive cells by flow cytometry and immunostaining. The format is cell-based. On the procedure: In order to check whether expression of a c-MPL receptor on a cell surface of a mesenchymal cell is promoted or not, the following culture experiment was carried out by culturing mesenchymal cells in a mesenchymal cell culturing basic medium comprising a c-MPL receptor active substance. Note that, in the culture experiment, preadipocytes were used as the mesenchymal cells.
Human primary culture preadipocytes (Human Preadipocytes: HPAd) manufactured by CELL APPLICATIONS were prepared. A culture dish was coated with collagen and then a culture medium was added to the dish. As the culture medium, DMEM medium (Dulbecco's Modified Eagle's Medium, manufactured by Life Technology Co.), to which a 10% fetal bovine serum (manufactured by Sigma), a 1% non-essential amino acid(s) (manufactured by Life Technology Co.), a 100 U/mL penicillin-streptomycin solution (manufactured by Life Technology Co.) and 50 ng/mL recombinant human TPO (manufactured by R&D Systems) were added, was used. The preadipocytes were cultured in the culture medium at 37° C. for 3 days. […] The preadipocytes (hereinafter referred to as “the cell population of preadipocytes (TPO+)”) were labeled with a fluorescence-labeled anti c-MPL antibody (manufactured by BD Bioscience), and fluorescence was measured by flow cytometry. When the ratio of c-MPL receptor positive cells was determined in this manner, the ratio was 3.68±0.39%. Note that, the cell population of preadipocytes (TPO+) was immuno-stained with a “fluorescence-labeled anti c-MPL antibody” and “DAPI (4′,6-diamidino-2-phenylindole)”. In the right panel, cells emitting fluorescence derived from the fluorescence-labeled anti c-MPL antibody are observed around the circular fluorescence emitted from nuclei stained with DAPI.
In contrast, the preadipocytes (hereinafter referred to as “cell population of preadipocytes (TPO−)”) were cultured in the same method except that recombinant human TPO was not added to a culture medium. When the ratio of the c-MPL receptor positive cells was determined by flow cytometry, the ratio was 0.67±0.12%. […]
A general note: A flow cytometer gives signals particle by particle.

For assay [2], the system named is cell population of preadipocytes (TPO+). As to the kind of experiment: Differentiation induction of preadipocytes into megakaryocytes/platelets in MKLI medium; CD41 positive cells by flow cytometry. The format is cell-based, human. The procedure:
In order to check whether “cell population of preadipocytes (TPO+)” obtained in Example 1 can be actually used for efficient production of megakaryocytes/platelets (megakaryocyte and/or platelet), differentiation of preadipocytes into megakaryocyte/platelets was induced in accordance with the method described in Patent Document 1.
A culture dish was coated with collagen and then a culture medium was added to the dish. As the culture medium, MKLI medium (megakaryocyte lineage induction medium) known as a medium which can induce differentiation of hematopoietic stem cells into megakaryocytes/platelets, was used. […]
The “cell population of preadipocytes (TPO+)” obtained in Example 1 was cultured in MKLI medium as mentioned above at 37° C. and in the conditions of a CO2 concentration of 5% for 7 days. After culture, the cell population was separately taken and the ratio (%) of CD41 (specific marker of megakaryocytes or platelets) positive cells in the cell population was determined. […]
In contrast, the ratio of CD41 positive cells in the “cell population of preadipocytes (TPO−)” obtained in Example 1 was determined by flow cytometry. […]

Assay [3] deals with CMK cells. The following applies: luciferase gene ligated downstream of the promoter; cited from earlier work.
Assay [4] deals with CMK cells. The following applies: cited from earlier work.

Turning to thrombopoietin [TPO], the “ratio of c-MPL receptor positive cells” value in assay [1] (50 ng/mL recombinant human TPO, 37° C., 3 days, fluorescence-labeled anti c-MPL antibody, flow cytometry) is 3.68±0.39%. Besides, in assay [1] (TPO added to culture medium vs not added), the “increase of the ratio of c-MPL receptor positive cells relative to the case where TPO is not added” value was “about 5.5 time”. In assay [1] (TPO added, 3 days, fluorescence-labeled anti c-MPL antibody and DAPI), the “c-MPL receptor positive cells by immunostaining (FIG. 1, right panel)” value is reported as “a large number of the cells, i.e., c-MPL receptor positive cells are present”. For the same substance, in assay [2] (TPO+ vs TPO− preadipocytes), the “number of megakaryocytes/platelets produced relative to preadipocytes cultured in medium not comprising recombinant TPO” value is “about 1.7 times”. In assay [2] (preadipocytes pre-cultured with TPO, then MKLI medium 37° C., 5% CO2, 7 days, FITC-labeled anti CD41 antibody, flow cytometry), the “ratio of CD41 positive cells in the cell population” value is reported as 28.5±2.1%. Besides, the “activity of the promotor of a c-MPL receptor gene” value with CMK cells [3] was “induced”. Also, the “expression of a c-MPL receptor on the surface of CMK cells” value in the assay on CMK cells [4] was “reduces expression”.
